Columns and labels:
Type in all cases: functional, cell-based
[1] = molecular target: T1, Taste receptor type 2 member 31 (Homo sapiens) (UniProt P59538); experiment: Activation of full-length human TAS2R44 expressed in HEK293T/Galpha16-gustducin 44 cells assessed as effect on calcium flux by measuring deltaF/F0 ratio at 100 mM by Fluo-4 dye based FLIPR assay (reference value: 0.021 +/ - 0.012)
T1 sequence (whole entry): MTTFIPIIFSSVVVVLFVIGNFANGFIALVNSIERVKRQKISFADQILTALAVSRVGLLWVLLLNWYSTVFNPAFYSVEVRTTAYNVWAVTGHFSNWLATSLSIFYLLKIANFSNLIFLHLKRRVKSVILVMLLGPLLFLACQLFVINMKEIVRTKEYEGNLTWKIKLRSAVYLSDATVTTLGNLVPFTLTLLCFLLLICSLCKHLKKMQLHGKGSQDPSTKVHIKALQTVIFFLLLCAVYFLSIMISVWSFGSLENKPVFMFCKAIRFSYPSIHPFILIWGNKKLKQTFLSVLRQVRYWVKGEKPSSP

[2] = molecular target: T2, Taste receptor type 2 member 1 (Homo sapiens) (UniProt Q9NYW7); experiment: Activation of full-length human TAS2R1 expressed in HEK293T/Galpha16-gustducin 44 cells assessed as effect on calcium flux by measuring deltaF/F0 ratio at 50 mM by Fluo-4 dye based FLIPR assay
T2 sequence (whole entry): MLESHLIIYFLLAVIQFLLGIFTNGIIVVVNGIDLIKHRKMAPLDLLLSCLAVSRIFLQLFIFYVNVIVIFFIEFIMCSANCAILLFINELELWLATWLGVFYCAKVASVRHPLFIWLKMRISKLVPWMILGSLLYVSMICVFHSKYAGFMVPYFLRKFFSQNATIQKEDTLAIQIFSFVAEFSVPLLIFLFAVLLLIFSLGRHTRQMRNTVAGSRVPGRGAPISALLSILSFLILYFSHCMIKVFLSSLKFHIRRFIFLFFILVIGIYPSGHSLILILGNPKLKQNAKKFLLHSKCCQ

[3] = molecular target: T2, Taste receptor type 2 member 1 (Homo sapiens); experiment: Activation of full-length human TAS2R1 expressed in HEK293T/Galpha16-gustducin 44 cells assessed as effect on calcium flux by measuring deltaF/F0 ratio at 25 mM by Fluo-4 dye based FLIPR assay
[4] = molecular target: T2, Taste receptor type 2 member 1 (Homo sapiens); experiment: Activation of full-length human TAS2R1 expressed in HEK293T/Galpha16-gustducin 44 cells assessed as effect on calcium flux by measuring deltaF/F0 ratio at 3.125 mM by Fluo-4 dye based FLIPR assay
[5] = molecular target: T2, Taste receptor type 2 member 1 (Homo sapiens); experiment: (§1) Activation of full-length human TAS2R1 expressed in HEK293T/Galpha16-gustducin 44 cells assessed as effect on calcium flux by measuring deltaF/F0 ratio by Fluo-4 dye based FLIPR assay
[6] = molecular target: T3, Taste receptor type 2 member 1 (Homo sapiens, UniProt Q9NYW7); experiment: as §1
T3 sequence (Q9NYW7 whole entry): T2 sequence (whole entry)

[7] = molecular target: T4, Taste receptor type 2 member 10 (Homo sapiens) (UniProt Q9NYW0); experiment: Activation of full-length human TAS2R10 expressed in HEK293T/Galpha16-gustducin 44 cells assessed as effect on calcium flux by measuring deltaF/F0 ratio at 50 mM by Fluo-4 dye based FLIPR assay
T4 sequence (whole entry): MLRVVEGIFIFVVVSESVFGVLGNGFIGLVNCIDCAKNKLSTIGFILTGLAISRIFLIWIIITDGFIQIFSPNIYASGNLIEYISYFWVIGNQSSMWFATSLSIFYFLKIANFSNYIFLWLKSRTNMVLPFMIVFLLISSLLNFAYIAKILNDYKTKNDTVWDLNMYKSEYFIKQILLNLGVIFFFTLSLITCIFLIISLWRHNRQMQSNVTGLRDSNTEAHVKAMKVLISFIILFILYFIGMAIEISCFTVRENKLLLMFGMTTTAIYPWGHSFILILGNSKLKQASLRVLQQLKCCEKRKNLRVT

[8] = molecular target: T4, Taste receptor type 2 member 10 (Homo sapiens); experiment: Activation of full-length human TAS2R10 expressed in HEK293T/Galpha16-gustducin 44 cells assessed as effect on calcium flux by measuring deltaF/F0 ratio at 3.125 mM by Fluo-4 dye based FLIPR assay
[9] = molecular target: T5, Taste receptor type 2 member 46 (Homo sapiens) (UniProt P59540); experiment: Activation of full-length human TAS2R46 expressed in HEK293T/Galpha16-gustducin 44 cells assessed as effect on calcium flux by measuring deltaF/F0 ratio at 25 mM by Fluo-4 dye based FLIPR assay
T5 sequence (whole entry): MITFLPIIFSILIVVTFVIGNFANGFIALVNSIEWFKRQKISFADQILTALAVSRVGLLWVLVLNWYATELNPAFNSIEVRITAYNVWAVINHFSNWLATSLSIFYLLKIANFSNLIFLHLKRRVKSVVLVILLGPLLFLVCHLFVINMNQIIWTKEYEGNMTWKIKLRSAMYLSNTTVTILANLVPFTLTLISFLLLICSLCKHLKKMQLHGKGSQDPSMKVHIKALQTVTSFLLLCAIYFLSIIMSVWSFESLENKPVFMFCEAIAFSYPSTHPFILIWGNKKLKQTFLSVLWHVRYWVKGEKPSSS

`OC[C@H]1O[C@H](O[C@]2(CCl)O[C@H](CCl)[C@@H](O)[C@@H]2O)[C@H](O)[C@@H](O)[C@H]1Cl` [SUCRALOSE] was tested, and the Ratio [1] was 0.26, the Ratio [2] was 0.197 and the Ratio [3] was 0.104. The Ratio [4] was 0.059, the Activity [5] was “Dose-dependent effect” and the EC50 [6] was 36.3 mM. The Ratio [7] was 0.212, the Ratio [8] was 0.053 and the Ratio [9] was 0.106.
